Read-outs that look alike come from different tables or passages of the source.

Holding throughout (format): biochemical
For assay [1], the target named is Acetylcholinesterase (AChE) (Homo sapiens, UniProt P22303). In words: Acetylcholinesterase inhibition efficiency (acetylthiocholine/DTNB absorbance). The method, then: (§1) Concentrations of 0, 2, 5, 10, 20, 50, 100, and 200 μM of the synthesized compounds were prepared by dilution in 10% DMSO, 63% phosphate buffer, and 27% tween 80, and 50 μl was dispensed into a 96-well plate. Acetylcholinesterase or butyrylcholinesterase was prepared at 0.5 U/ml, 50 μl was added to a 96-well plate, mixed with the aliquoted compound, and left for 10 minutes. The substrate, acetylthiocholine or butyrylthiocholine, was prepared at 0.4mg/ml, then 50 μl was added to a 96-well plate and left for 20 minutes. Dithionitrobenzoic acid (DTNB) was prepared at 1.2 mg/ml, then 50 μl was added to a 96-well plate and left for 10minutes.
Chain of Acetylcholinesterase (AChE) (P22303 32-614, species assumed): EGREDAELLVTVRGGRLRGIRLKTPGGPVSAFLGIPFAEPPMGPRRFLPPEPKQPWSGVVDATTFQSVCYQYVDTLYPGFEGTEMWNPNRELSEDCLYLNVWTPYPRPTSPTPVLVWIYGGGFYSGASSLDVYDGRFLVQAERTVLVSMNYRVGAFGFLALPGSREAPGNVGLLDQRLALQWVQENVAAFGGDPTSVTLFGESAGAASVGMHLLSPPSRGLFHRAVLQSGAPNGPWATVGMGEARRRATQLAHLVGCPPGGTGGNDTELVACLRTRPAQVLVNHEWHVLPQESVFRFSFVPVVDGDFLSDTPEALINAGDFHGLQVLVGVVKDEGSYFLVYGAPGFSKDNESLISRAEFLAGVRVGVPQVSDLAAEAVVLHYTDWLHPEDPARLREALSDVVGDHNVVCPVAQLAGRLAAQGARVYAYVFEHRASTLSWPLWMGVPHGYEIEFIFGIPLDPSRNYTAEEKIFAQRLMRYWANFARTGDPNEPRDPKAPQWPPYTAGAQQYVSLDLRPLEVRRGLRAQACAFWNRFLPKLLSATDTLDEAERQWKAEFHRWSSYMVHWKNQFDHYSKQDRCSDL

Assay [2] deals with Butyrylcholinesterase (BuChE) (Homo sapiens, UniProt P06276). In words: Butyrylcholinesterase inhibition efficiency (butyrylthiocholine/DTNB absorbance). The method, then: as §1
Chain of Butyrylcholinesterase (BuChE) (P06276 29-602): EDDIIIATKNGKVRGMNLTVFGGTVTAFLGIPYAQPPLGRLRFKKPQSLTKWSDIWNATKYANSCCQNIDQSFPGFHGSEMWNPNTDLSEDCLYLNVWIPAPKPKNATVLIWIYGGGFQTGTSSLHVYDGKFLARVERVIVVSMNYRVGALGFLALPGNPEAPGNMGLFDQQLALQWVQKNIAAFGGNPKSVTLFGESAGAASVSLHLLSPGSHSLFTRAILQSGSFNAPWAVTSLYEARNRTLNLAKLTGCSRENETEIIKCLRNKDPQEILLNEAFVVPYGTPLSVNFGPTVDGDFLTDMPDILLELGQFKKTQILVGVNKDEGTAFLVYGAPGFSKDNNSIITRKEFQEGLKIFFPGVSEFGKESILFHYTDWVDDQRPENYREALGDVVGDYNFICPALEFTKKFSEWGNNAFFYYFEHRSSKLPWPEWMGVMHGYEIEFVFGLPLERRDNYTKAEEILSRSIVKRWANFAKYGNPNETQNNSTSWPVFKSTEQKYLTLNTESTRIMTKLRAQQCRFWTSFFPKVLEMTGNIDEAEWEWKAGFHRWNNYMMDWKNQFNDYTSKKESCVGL
Assay [3] addresses T1, Monoamine oxidase B (MAO-B) (Homo sapiens, UniProt P27338).
T1 sequence (P27338 1-520): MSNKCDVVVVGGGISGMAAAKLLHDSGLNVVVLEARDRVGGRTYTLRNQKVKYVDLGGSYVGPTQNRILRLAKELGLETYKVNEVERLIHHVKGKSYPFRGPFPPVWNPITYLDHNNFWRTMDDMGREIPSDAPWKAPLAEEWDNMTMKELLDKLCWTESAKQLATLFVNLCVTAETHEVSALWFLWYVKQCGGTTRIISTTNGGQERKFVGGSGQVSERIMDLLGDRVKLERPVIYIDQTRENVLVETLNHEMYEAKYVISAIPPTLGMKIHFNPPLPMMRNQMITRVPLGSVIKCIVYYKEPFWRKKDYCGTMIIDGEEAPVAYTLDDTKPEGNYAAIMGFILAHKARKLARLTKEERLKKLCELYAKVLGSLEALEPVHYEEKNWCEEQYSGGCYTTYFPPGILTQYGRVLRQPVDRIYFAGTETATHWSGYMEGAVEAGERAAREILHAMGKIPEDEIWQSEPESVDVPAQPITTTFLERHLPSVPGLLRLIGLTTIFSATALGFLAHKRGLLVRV
In words: Monoamine oxidase B inhibition efficiency (kynuramine fluorescence). How it is done:
Samples were prepared by dilution with DMSO to give concentrations of 0, 2, 5, 10, 20, 50, 100, and 200 μM of the compound, and 5 μl was dispensed into a 96-well plate. 135 μl of potassium phosphate buffer (0.1 M, 7.4 pH) was dispensed into a 96-well plate. Monoamine oxidase B was prepared at 40 μl/ml, and 50 μl was added to the 96-well plate, mixed with the dispensed compound, and left for 20 minutes. The substrate, kynuramine solution, was prepared at 100 μM, then 10 μl was added to a 96-well plate and left for 10 min. The reaction was stopped by adding 75 μl of NaOH (2N). For the fluorescence blank experiment, potassium phosphate buffer was added instead of monoamine oxidase B to correct the compound-induced fluorescence intensity values.

The mark [4] stands for this setting: 0.5 U/ml enzyme, butyrylthiocholine substrate, compound 0-200 μM, read-out: IC50 for BuChE.
Where [5] appears, read: kynuramine substrate, potassium phosphate buffer pH 7.4, compound 0-200 μM, read-out: IC50 for MAOB.
Where [6] appears, read: 0.5 U/ml enzyme, acetylthiocholine substrate, compound 0-200 μM, read-out: IC50 for AChE.

Take `C=C(C)[C@@H]1CCC(C)=C[C@H]1c1c(O)cc(O)cc1CCCCC` [compound 1a, (1′R,2′R)-5′-methyl-6-pentyl-2′-(prop-1-en-2-yl)-1′,2′,3′,4′-tetrahydro-[1, 1′-biphenyl]-2,4-diol]: the IC50 was found to be 3.1 µM in assay [1], 1.7 µM in assay [2] and 44 µM in assay [3].

As for `C=C(C)[C@@H]1CCC(C)=C[C@H]1c1c(O)cc(O)cc1CCC` [compound 1b, (1′R,2′R)-5′-methyl-2′-(prop-1-en-2-yl)-6-propyl-1′,2′,3′,4′-tetrahydro-[1, 1′-biphenyl]-2,4-diol], the IC50 in assay [1] is 58.2 µM; in assay [2], 4 µM; in assay [3] it was 31.5 µM.

As for `C=C(C)[C@@H]1CCC(C)=C[C@H]1c1c(C)cc(O)cc1O` [compound 1c, (1′R,2′R)-5′,6-dimethyl-2′-(prop-1-en-2-yl)-1′,2′,3′,4′-tetrahydro-[1, 1′-biphenyl]-2,4-diol], the IC50 in assay [1] came to 2.6 µM; in assay [2], 1.7 µM; in assay [3] it was 24.8 µM.

For `C=C(C)[C@@H]1CCC(C)=C[C@H]1c1c(O)cc(O)cc1CCc1ccccc1` [compound 1d, (1′R,2′R)-5′-methyl-6-phenethyl-2′-(prop-1-en-2-yl)-1′,2′,3′,4′-tetrahydro-[1, 1′-biphenyl]-2,4-diol], the IC50 in assay [1] is 3.3 µM; in assay [2], 2.6 µM.

Consider `C=C(C)[C@@H]1CCC(C)=C[C@H]1c1c(O)cc(O)cc1Br` [compound 1e, (1′R,2′R)-6-bromo-5′-methyl-2′-(prop-1-en-2-yl)-1′,2′,3′,4′-tetrahydro-[1,1′-biphenyl]-2,4-diol], for which the values for the IC50 in assay [1], in assay [2] (setting [4]) and in assay [3] (setting [5]) were 20 µM, 9.3 µM and 26.2 µM, respectively.

Consider `C=C(C)[C@@H]1CCC(C)=C[C@H]1c1cc(Cl)c(O)cc1O` [compound 1f, (1′R,2′R)-5-chloro-5′-methyl-2′-(prop-1-en-2-yl)-1′,2′,3′,4′-tetrahydro-[1, 1′-biphenyl]-2,4-diol], for which the values for the IC50 in assay [1], in assay [2] (setting [4]) and in assay [3] (setting [5]) were 20 µM, 19.3 µM and 29.9 µM, respectively.

Turning to `C=C(C)[C@@H]1CCC(C)=C[C@H]1c1c(O)cc(O)cc1C#N` [compound 1g, (1′R,2′R)-4,6-dihydroxy-5′-methyl-2′-(prop-1-en-2-yl)-1′,2′,3′,4′-tetrahydro-[1, 1′-biphenyl]-2-carbonitrile], the IC50 came to 74 µM in assay [1], 8.6 µM in assay [2] (setting [4]) and 61.1 µM in assay [3] (setting [5]).

With `C=C(C)[C@@H]1CCC(C)=C[C@H]1c1c(O)cc(O)cc1OC` [compound 1h, (1′R,2′R)-6-methoxy-5′-methyl-2′-(prop-1-en-2-yl)-1′,2′,3′,4′-tetrahydro-[1, 1′-biphenyl]-2,4-diol], the IC50 turned out to be 78 µM in assay [1] (setting [6]), 55.3 µM in assay [2] (setting [4]) and 35.8 µM in assay [3] (setting [5]).

Take `C=C(C)[C@@H]1CCC(C)=C[C@H]1c1ccc(O)c(C(C)=O)c1O` [compound 1i, 1-((1′R,2′R)-2,4-dihydroxy-5′-methyl-2′-(prop-1-en-2-yl)-1′,2′,3′,4′-tetrahydro-[1, 1′-biphenyl]-3-yl)ethan-1-one]: the IC50 in assay [1] (setting [6]) came to 6.6 µM; in assay [2] (setting [4]), 7.3 µM; in assay [3] (setting [5]), 16.4 µM.

With `C=C(C)[C@@H]1CCC(C)=C[C@H]1c1c(O)c(C(C)=O)c(O)c([C@@H]2C=C(C)CC[C@H]2C(=C)C)c1O` [compound 1j, 1-((1R,1″R,2R,2″R)-2′,4′,6′-trihydroxy-5,5″-dimethyl-2,2″-di (prop-1-en-2-yl)-1,1″,2,2″,3,3″,4,4″-octahydro-[1,1′:3′,1″-terphenyl]-5′-yl)ethan-1-one], the IC50 in assay [1] (setting [6]) came to 2 µM; in assay [2] (setting [4]), 30.6 µM; in assay [3] (setting [5]) it was 142 µM.

With `C=C(C)[C@H]1CCC(C)=C[C@@H]1c1c(O)cc(OC)c([C@@H]2C=C(C)CC[C@H]2C(=C)C)c1O` [compound 1k, (1R,1″S,2R,2″S)-6′-methoxy-5,5″-dimethyl-2,2″-di(prop-1-en-2-yl)-1, 1″,2,2″,3,3″,4,4″-octahydro-[1,1′:3′,1″-terphenyl]-2′,4′-diol], in assay [1] (setting [6]), the IC50 came out at 5.3 µM.

Consider `C=C(C)[C@@H]1CCC(C)=C[C@H]1c1c(O)cc(O)c(C(C)=O)c1O` [compound 1l, 1-((1′R,2′R)-2,4,6-trihydroxy-5′-methyl-2′-(prop-1-en-2-yl)-1′,2′,3′,4′-tetrahydro-[1,1′-biphenyl]-3-yl)ethan-1-one], for which the IC50 was 23.3 µM in assay [1] (setting [6]), 6.6 µM in assay [2] (setting [4]) and 7.99 µM in assay [3] (setting [5]).

With `C=C(C)[C@@H]1CCC(C)=C[C@H]1c1ccc(O)c(Br)c1O` [compound 1m, (1′R,2′R)-3-bromo-5′-methyl-2′-(prop-1-en-2-yl)-1′,2′,3′,4′-tetrahydro-[1, 1′-biphenyl]-2,4-diol], the results for the IC50 in assay [1], in assay [2] (setting [4]) and in assay [3] (setting [5]) were 42.6 µM, 44.6 µM and 118 µM, respectively.

Consider `C=C(C)[C@@H]1CCC(C)=C[C@H]1c1ccc(O)c(C(=O)O)c1O` [compound 1n, (1′R,2′R)-2,4-dihydroxy-5′-methyl-2′-(prop-1-en-2-yl)-1′,2′,3′,4′-tetrahydro-[1, 1′-biphenyl]-3-carboxylic acid], for which the IC50 is 10.6 µM in assay [1] (setting [6]), 13.3 µM in assay [2] (setting [4]) and 30.7 µM in assay [3] (setting [5]).

For the molecule `C=C(C)[C@@H]1CCC(C)=C[C@H]1c1cc(C(=O)NCCc2ccc(OC)cc2)c(O)cc1O` [compound 1o, (1′R,2′R)-4,6-dihydroxy-N-(4-methoxyphenethyl)-5′-methyl-2′-(prop-1-en-2-yl)-1′, 2′,3′,4′-tetrahydro-[1,1′-biphenyl]-3-carboxamide], the IC50 is 15.3 µM in assay [1] (setting [6]), 27.3 µM in assay [2] (setting [4]) and 56.1 µM in assay [3] (setting [5]).

On to `C=C(C)[C@@H]1CCC(C)=C[C@H]1c1c(O)cc(O)cc1C(C)=O` [compound 1p, 1-((1′R,2′R)-4,6-dihydroxy-5′-methyl-2′-(prop-1-en-2-yl)-1′,2′,3′,4′-tetrahydro-[1, 1′-biphenyl]-2-yl) ethan-1-one], for which the figures for the IC50 in assay [1] (setting [6]), in assay [2] (setting [4]) and in assay [3] (setting [5]) were 4.6 µM, 2 µM and 2.1 µM, respectively.

Regarding `C=C(C)[C@@H]1CCC(C)=C[C@H]1c1cc(C(=O)NCCc2ccc(O)cc2)c(O)cc1O` [compound 1q, (1′R,2′R)-4,6-dihydroxy-N-(4-hydroxyphenethyl)-5′-methyl-2′-(prop-1-en-2-yl)-1′, 2′,3′,4′-tetrahydro-[1,1′-biphenyl]-3-carboxamide], the IC50 in assay [1] is 7.3 µM; in assay [2] (setting [4]), 3.3 µM; in assay [3] (setting [5]) it was 18.1 µM.
